Data reported in patent publication US20080009418A1, “Selective Inhibitors” (Alchemia LTD., priority 2004, published 2008).

Tests used:
Human κ-Opioid (KOP) = molecular target: T1, Human κ-Opioid (KOP) (Homo sapiens, UniProt P41145); assay: Radioligand binding, human κ-opioid (KOP) membranes, filtration, [3H]-Diprenorphine; conditions: compound at 10 μM, [3H]-Diprenorphine
T1 construct: purchased Perkin Elmer Biosignal
How it was run: (§1)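 Membranes from cloned human receptors were incubated with compound and radioligand for 1 hour at room temperature. Bound ligand was collected on 0.3% PEI-soaked filters, washed with cold 50 mM Tris-HCl pH 7.4, and counted by scintillation. Percent inhibition was computed against DMSO totals and reference-ligand nonspecific wells.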

Human melanocortin (MC5) = molecular target: T2, Human melanocortin (MC5) (Homo sapiens, UniProt P33032); assay: Radioligand binding, human melanocortin MC5 membranes, FlashPlate, [125I]-NDP-αMSH; conditions: compound at 10 μM, [125I]-NDP-αMSH
T2 construct: purchased Perkin Elmer Biosignal
T2 sequence (P33032 whole entry): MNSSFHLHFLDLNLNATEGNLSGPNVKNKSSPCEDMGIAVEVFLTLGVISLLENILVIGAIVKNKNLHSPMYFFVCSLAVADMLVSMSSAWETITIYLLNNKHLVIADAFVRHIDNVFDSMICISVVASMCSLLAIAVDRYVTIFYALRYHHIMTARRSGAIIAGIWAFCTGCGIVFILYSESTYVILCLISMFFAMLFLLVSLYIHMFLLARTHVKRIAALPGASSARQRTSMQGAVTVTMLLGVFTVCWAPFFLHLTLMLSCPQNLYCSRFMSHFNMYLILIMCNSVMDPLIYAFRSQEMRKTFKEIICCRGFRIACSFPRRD
How it was run: (§2)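 Cloned human receptor membranes were coated onto FlashPlate wells and incubated with radioligand and compound (added from a 0.5 mM DMSO daughter plate) for 1 hour at room temperature in the dark. Scintillation counting gave percent inhibition, with DMSO defining total and reference ligand defining non-specific binding.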

[1] = molecular target: T3, Human neuropeptide Y (NPY-Y1) (Homo sapiens, UniProt P25929); assay: Radioligand binding, human neuropeptide Y NPY-Y1 membranes, FlashPlate, [125I]-PYY; conditions: compound at 10 μM, [125I]-PYY
T3 construct: purchased Perkin Elmer Biosignal
T3 sequence (P25929 1-384): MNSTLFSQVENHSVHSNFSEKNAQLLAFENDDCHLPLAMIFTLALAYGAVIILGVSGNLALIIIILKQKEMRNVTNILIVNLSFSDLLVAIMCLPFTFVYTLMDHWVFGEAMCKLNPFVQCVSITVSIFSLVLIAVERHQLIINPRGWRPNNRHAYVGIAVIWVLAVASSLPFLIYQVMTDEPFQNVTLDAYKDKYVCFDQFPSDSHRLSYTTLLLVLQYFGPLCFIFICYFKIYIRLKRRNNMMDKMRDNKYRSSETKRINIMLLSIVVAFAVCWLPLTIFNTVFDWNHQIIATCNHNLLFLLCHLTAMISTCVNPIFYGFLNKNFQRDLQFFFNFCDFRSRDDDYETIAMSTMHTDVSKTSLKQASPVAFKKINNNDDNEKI
How it was run: as §2

Human neurokinin (NK1) = molecular target: T4, Human neurokinin (NK1) (Homo sapiens, UniProt P25103); assay: Radioligand binding, human neurokinin NK1 membranes, filtration, [125I]-Substance P; conditions: compound at 10 μM, [125I]-Substance P
T4 construct: purchased Perkin Elmer Biosignal
T4 sequence (P25103 whole entry): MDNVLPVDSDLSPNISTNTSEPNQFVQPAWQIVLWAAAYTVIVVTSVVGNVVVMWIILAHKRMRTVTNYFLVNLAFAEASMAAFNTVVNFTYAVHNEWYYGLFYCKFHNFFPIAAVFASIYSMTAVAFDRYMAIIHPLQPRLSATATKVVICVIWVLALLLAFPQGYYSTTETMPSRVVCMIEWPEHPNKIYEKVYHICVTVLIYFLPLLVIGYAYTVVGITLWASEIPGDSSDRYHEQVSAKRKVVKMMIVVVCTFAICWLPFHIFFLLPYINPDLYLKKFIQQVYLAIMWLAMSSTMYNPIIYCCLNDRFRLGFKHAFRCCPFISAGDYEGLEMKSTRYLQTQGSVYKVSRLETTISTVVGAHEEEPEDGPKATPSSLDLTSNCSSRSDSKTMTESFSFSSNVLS
How it was run: as §1

Human Melanocortin (MC3) = molecular target: T5, Human Melanocortin (MC3) (Homo sapiens, UniProt P41968); assay: Radioligand binding, human melanocortin MC3 membranes, FlashPlate, [125I]-NDP-αMSH; conditions: compound at 10 μM, [125I]-NDP-αMSH
T5 construct: purchased Perkin Elmer Biosignal
T5 sequence (P41968 whole entry): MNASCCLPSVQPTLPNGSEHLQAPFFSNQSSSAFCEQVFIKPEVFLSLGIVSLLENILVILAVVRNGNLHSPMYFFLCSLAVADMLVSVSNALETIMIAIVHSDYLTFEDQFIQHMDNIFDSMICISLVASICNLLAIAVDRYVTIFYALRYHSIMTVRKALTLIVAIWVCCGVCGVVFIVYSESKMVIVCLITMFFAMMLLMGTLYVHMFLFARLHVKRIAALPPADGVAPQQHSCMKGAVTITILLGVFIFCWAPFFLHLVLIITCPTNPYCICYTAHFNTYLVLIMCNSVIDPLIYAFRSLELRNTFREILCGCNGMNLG
How it was run: as §2

[2] = molecular target: T6, Human melanin-concentrating hormone (MCH1) (Homo sapiens, UniProt Q99705); assay: Radioligand binding, human melanin-concentrating hormone MCH1 membranes, FlashPlate, [125I]-S36057; conditions: compound at 10 μM; for A6: inhibition of radioligand binding, human melanin-concentrating hormone (MCH1): [125I]-S36057
T6 construct: purchased Perkin Elmer Biosignal
T6 sequence (Q99705 whole entry): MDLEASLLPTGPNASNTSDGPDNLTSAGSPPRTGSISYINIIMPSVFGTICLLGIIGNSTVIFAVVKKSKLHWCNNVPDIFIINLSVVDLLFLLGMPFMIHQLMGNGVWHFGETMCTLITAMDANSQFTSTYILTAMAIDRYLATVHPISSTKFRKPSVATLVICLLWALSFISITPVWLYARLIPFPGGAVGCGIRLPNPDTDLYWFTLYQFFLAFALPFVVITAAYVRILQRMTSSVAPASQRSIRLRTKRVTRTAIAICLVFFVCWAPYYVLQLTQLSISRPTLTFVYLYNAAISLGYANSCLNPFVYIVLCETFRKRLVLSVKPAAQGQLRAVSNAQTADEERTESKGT
How it was run: as §2

Human μ-opioid (MOP) = molecular target: T7, Human μ-opioid (MOP) (Homo sapiens, UniProt P35372); assay: Radioligand binding, human μ-opioid (MOP) membranes, FlashPlate, [3H]-Naloxone; conditions: compound at 10 μM, [3H]-Naloxone
T7 construct: purchased Perkin Elmer Biosignal
T7 sequence (P35372 whole entry): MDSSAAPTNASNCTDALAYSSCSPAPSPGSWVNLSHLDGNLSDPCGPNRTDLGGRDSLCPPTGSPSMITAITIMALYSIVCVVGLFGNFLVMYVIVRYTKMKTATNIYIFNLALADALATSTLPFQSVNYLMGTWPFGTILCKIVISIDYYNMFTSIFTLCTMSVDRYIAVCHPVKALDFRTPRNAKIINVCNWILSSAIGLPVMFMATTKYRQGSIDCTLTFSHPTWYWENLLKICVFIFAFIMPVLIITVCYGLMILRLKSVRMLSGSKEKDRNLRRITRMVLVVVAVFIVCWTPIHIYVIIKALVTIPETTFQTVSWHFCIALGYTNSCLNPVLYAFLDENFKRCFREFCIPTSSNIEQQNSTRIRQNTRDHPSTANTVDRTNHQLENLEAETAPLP
How it was run: as §2

Human opioid (ORL1) = molecular target: T8, Human opioid (ORL1) (Homo sapiens, UniProt P41146); assay: Radioligand binding, human opioid ORL1 membranes, FlashPlate, [125I]-Nociceptin; conditions: compound at 10 μM, [125I]-Nociceptin
T8 construct: purchased Perkin Elmer Biosignal
T8 sequence (P41146 whole entry): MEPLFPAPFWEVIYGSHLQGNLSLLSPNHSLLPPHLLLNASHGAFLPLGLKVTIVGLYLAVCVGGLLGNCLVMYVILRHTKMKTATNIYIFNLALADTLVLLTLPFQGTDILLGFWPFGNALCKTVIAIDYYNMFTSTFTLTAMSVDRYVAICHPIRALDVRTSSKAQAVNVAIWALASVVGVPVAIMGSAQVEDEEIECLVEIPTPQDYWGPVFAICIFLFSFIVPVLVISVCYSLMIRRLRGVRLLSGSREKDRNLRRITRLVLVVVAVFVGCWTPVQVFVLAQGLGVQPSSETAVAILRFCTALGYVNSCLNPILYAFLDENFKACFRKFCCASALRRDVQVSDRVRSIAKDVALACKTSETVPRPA
How it was run: as §2

Mouse urotensin (mUR2) = molecular target: T9, Mouse urotensin (mUR2) (Mus musculus, UniProt Q8VIH9); assay: Radioligand binding, mouse urotensin mUR2 membranes, FlashPlate, [125I]-Urotensin II; conditions: compound at 10 μM, [125I]-Urotensin II
T9 construct: purchased Perkin Elmer Biosignal
T9 sequence (Q8VIH9 1-385): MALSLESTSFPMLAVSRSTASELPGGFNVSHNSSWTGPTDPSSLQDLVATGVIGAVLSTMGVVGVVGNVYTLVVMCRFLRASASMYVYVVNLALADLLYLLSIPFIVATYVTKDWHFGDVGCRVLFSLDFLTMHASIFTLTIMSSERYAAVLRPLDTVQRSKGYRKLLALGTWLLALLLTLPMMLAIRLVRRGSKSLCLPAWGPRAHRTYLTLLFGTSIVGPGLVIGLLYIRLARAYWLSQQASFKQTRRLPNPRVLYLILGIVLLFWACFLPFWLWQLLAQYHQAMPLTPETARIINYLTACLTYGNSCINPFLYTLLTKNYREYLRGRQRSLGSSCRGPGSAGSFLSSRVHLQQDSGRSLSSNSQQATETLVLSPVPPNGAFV
How it was run: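 Cloned mouse urotensin (mUR2) receptor membranes from Perkin Elmer Biosignal were immobilized in FlashPlate microplates using a proprietary coating. Each well got 19.5 μl buffer, then 0.5 μl of DMSO, reference ligand, or compound. Adding 5 μl of [125I]-Urotensin II, diluted to 5× final concentration in binding buffer, started binding. Plates were sealed with TopSeal-A and incubated 1 hour at room temperature in the dark. Wells were counted for 30 seconds each on a TopCount after a 60-second delay, and percentage inhibition was calculated.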

Human δ-opioid (DOP) = molecular target: T10, Human δ-opioid (DOP) (Homo sapiens, UniProt P41143); assay: Radioligand binding, human δ-opioid (DOP) membranes, FlashPlate, [3H]-Bremazocine; conditions: compound at 10 μM, [3H]-Bremazocine
T10 construct: purchased Perkin Elmer Biosignal
T10 sequence (P41143 whole entry): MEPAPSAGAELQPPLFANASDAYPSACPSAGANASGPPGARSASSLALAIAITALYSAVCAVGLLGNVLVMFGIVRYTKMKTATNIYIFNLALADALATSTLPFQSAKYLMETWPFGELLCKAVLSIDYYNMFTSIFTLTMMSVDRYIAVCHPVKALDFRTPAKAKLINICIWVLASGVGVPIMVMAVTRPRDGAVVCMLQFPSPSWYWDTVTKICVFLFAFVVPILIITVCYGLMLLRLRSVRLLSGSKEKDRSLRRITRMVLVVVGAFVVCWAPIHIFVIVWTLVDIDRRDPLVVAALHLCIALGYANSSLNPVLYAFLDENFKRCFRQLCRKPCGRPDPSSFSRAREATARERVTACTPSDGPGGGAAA
How it was run: as §2

Human Melanocortin (MC4) = molecular target: T11, Human Melanocortin (MC4) (Homo sapiens, UniProt P32245); assay: Radioligand binding, human melanocortin MC4 membranes, FlashPlate, [125I]-NDP-αMSH; conditions: compound at 10 μM, [125I]-NDP-αMSH
T11 construct: purchased Perkin Elmer Biosignal
T11 sequence (P32245 whole entry): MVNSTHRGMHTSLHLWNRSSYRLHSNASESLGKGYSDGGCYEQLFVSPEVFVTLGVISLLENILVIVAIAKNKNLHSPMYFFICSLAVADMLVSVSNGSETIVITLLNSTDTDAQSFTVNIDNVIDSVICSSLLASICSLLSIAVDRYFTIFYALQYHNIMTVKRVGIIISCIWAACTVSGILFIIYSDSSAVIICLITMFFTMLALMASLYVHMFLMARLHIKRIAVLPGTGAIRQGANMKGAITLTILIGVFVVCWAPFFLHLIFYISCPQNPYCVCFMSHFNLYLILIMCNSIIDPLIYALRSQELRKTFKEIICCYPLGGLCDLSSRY
How it was run: as §2

T1 sequence (P41145 whole entry): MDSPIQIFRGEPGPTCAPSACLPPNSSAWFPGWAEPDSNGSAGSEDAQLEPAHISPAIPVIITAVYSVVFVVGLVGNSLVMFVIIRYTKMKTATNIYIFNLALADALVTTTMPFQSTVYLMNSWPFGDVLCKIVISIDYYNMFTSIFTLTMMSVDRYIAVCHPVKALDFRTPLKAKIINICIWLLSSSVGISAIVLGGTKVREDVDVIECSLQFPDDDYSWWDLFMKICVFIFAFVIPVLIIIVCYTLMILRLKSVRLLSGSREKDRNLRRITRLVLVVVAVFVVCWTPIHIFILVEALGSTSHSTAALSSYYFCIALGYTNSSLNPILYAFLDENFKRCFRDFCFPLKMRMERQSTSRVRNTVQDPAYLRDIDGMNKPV

| SMILES | A2: inhibition of radioligand binding, human κ-opioid (KOP) (Human κ-Opioid (KOP)) | A5: inhibition of radioligand binding, human melanocortin (MC5) (Human melanocortin (MC5)) | A9: inhibition of radioligand binding, human neuropeptide Y (NPY-Y1) [1] | A8: inhibition of radioligand binding, human neurokinin (NK1) (Human neurokinin (NK1)) | A3: inhibition of radioligand binding, human melanocortin (MC3) (Human Melanocortin (MC3)) | A6: inhibition of radioligand binding, human melanin-concentrating hormone (MCH1) [2] | A7: inhibition of radioligand binding, human μ-opioid (MOP) (Human μ-opioid (MOP)) | A10: inhibition of radioligand binding, human opioid (ORL1) (Human opioid (ORL1)) | A11: inhibition of radioligand binding, mouse urotensin (mUR2) (Mouse urotensin (mUR2)) | A1: inhibition of radioligand binding, human δ-opioid (DOP) (Human δ-opioid (DOP)) | A4: inhibition of radioligand binding, human melanocortin (MC4) (Human Melanocortin (MC4)) | A2: inhibition of radioligand binding (Human κ-Opioid (KOP); filtration) | A5: inhibition of radioligand binding (Human melanocortin (MC5); FlashPlate) | A9: inhibition of radioligand binding ([1]; FlashPlate) | A8: inhibition of radioligand binding (Human neurokinin (NK1); filtration) | A3: inhibition of radioligand binding (Human Melanocortin (MC3); FlashPlate) | A6: inhibition of radioligand binding ([2]; [125I]-S36057, FlashPlate) | A7: inhibition of radioligand binding (Human μ-opioid (MOP); FlashPlate) | A10: inhibition of radioligand binding (Human opioid (ORL1); FlashPlate) | A11: inhibition of radioligand binding (Mouse urotensin (mUR2); FlashPlate) | further results |
| --- | --- | --- | --- | --- | --- | --- | --- | --- | --- | --- | --- | --- | --- | --- | --- | --- | --- | --- | --- | --- | --- |
| N=C(N)NCC(=O)N[C@H]1C(OCc2ccc(Cl)cc2)O[C@H](COCc2ccccc2)[C@@H](O)[C@@H]1OCc1ccc2ccccc2c1 (stereo partly shown) [compound 514] | − (“−” indicates less than 50% inhibition at 10 μM) | + (“+” indicates greater than 50% inhibition at 10 μM) | + (“+” indicates greater than 50% inhibition at 10 μM) | + (“+” indicates greater than 50% inhibition at 10 μM) | + (“+” indicates greater than 50% inhibition at 10 μM) | + (“+” indicates greater than 50% inhibition at 10 μM) | − (“−” indicates less than 50% inhibition at 10 μM) | + (“+” indicates greater than 50% inhibition at 10 μM) | − (“−” indicates less than 50% inhibition at 10 μM) | − (“−” indicates less than 50% inhibition at 10 μM) | + (“+” indicates greater than 50% inhibition at 10 μM) | – | – | – | – | – | – | – | – | – | – |
| COCC1OC(OCc2ccc3ccccc3c2)C(NC(=O)CCNC(=N)N)C(OCc2ccc(-c3ccccc3)cc2)C1O (stereo not shown) [compound 244] | – | – | – | – | – | – | – | – | – | – | – | − (“−” indicates less than 50% inhibition at 10 μM) | + (“+” indicates greater than 50% inhibition at 10 μM) | + (“+” indicates greater than 50% inhibition at 10 μM) | + (“+” indicates greater than 50% inhibition at 10 μM) | + (“+” indicates greater than 50% inhibition at 10 μM) | + (“+” indicates greater than 50% inhibition at 10 μM) | − (“−” indicates less than 50% inhibition at 10 μM) | − (“−” indicates less than 50% inhibition at 10 μM) | − (“−” indicates less than 50% inhibition at 10 μM) | A1: inhibition of radioligand binding (Human δ-opioid (DOP); FlashPlate): − (“−” indicates less than 50% inhibition at 10 μM); A4: inhibition of radioligand binding (Human Melanocortin (MC4); FlashPlate): + (“+” indicates greater than 50% inhibition at 10 μM) |
| NCCC(=O)NC1C(OCc2ccc3ccccc3c2)OC(COCc2ccccc2)C(O)C1OCc1ccccc1 (stereo not shown) [compound 451] | – | – | – | – | – | – | – | – | – | – | – | – | – | – | – | – | – | – | – | – | A2: inhibition of radioligand binding (Human κ-Opioid (KOP); human KOP membranes): − (“−” indicates less than 50% inhibition at 10 μM); A5: inhibition of radioligand binding (Human melanocortin (MC5); human MC5 membranes, 10 µM): − (“−” indicates less than 50% inhibition at 10 μM); A9: inhibition of radioligand binding ([1]; human NPY-Y1 membranes): − (“−” indicates less than 50% inhibition at 10 μM); A8: inhibition of radioligand binding (Human neurokinin (NK1); human NK1 membranes): + (“+” indicates greater than 50% inhibition at 10 μM); A3: inhibition of radioligand binding (Human Melanocortin (MC3); human MC3 membranes): − (“−” indicates less than 50% inhibition at 10 μM); A6: inhibition of radioligand binding ([2]; [125I]-S36057, human MCH1 membranes): − (“−” indicates less than 50% inhibition at 10 μM); A7: inhibition of radioligand binding (Human μ-opioid (MOP); human MOP membranes): − (“−” indicates less than 50% inhibition at 10 μM); A10: inhibition of radioligand binding (Human opioid (ORL1); human ORL1 membranes): − (“−” indicates less than 50% inhibition at 10 μM); A11: inhibition of radioligand binding (Mouse urotensin (mUR2); mouse mUR2 membranes): − (“−” indicates less than 50% inhibition at 10 μM); A1: inhibition of radioligand binding (Human δ-opioid (DOP); human DOP membranes): − (“−” indicates less than 50% inhibition at 10 μM); A4: inhibition of radioligand binding (Human Melanocortin (MC4); human MC4 membranes): + (“+” indicates greater than 50% inhibition at 10 μM) |
| COCC1OC(OCc2ccccc2)C(NC(=O)CCNC(=N)N)C(OCc2ccc3ccccc3c2)C1O (stereo not shown) [compound 191] | – | – | – | – | – | – | – | – | – | – | – | − (“−” indicates less than 50% inhibition at 10 μM) | + (“+” indicates greater than 50% inhibition at 10 μM) | − (“−” indicates less than 50% inhibition at 10 μM) | + (“+” indicates greater than 50% inhibition at 10 μM) | − (“−” indicates less than 50% inhibition at 10 μM) | + (“+” indicates greater than 50% inhibition at 10 μM) | − (“−” indicates less than 50% inhibition at 10 μM) | − (“−” indicates less than 50% inhibition at 10 μM) | − (“−” indicates less than 50% inhibition at 10 μM) | A1: inhibition of radioligand binding (Human δ-opioid (DOP); FlashPlate): − (“−” indicates less than 50% inhibition at 10 μM); A4: inhibition of radioligand binding (Human Melanocortin (MC4); FlashPlate): + (“+” indicates greater than 50% inhibition at 10 μM) |
| N=C(N)NCC(=O)N[C@H]1C(OCc2ccc(Cl)cc2)O[C@H](COCc2ccc(Cl)cc2)[C@@H](O)[C@@H]1OCc1ccc(Cl)cc1 (stereo partly shown) [compound 511] | − (“−” indicates less than 50% inhibition at 10 μM) | + (“+” indicates greater than 50% inhibition at 10 μM) | − (“−” indicates less than 50% inhibition at 10 μM) | + (“+” indicates greater than 50% inhibition at 10 μM) | + (“+” indicates greater than 50% inhibition at 10 μM) | + (“+” indicates greater than 50% inhibition at 10 μM) | + (“+” indicates greater than 50% inhibition at 10 μM) | + (“+” indicates greater than 50% inhibition at 10 μM) | − (“−” indicates less than 50% inhibition at 10 μM) | − (“−” indicates less than 50% inhibition at 10 μM) | + (“+” indicates greater than 50% inhibition at 10 μM) | – | – | – | – | – | – | – | – | – | – |
